# Data: PMC8359193, “Summary of reference chemicals evaluated by the fish short‐term reproduction assay, OECD TG229, using Japanese Medaka, Oryzias latipes” (Journal of Applied Toxicology, 2021)
# Tested on: Japanese medaka (Oryzias latipes)
# Experiment: Fish short-term reproduction assay (FSTRA, OECD TG229), 21-day flow-through exposure
# Settings: for Fertility rate (%) / Mortality (%) Female / Mortality (%) Male / Number of fertilized eggs / Number of total eggs / SSC Female / VTG (ng/mg of liver) Female / VTG (ng/mg of liver) Male / SSC Male: 21 days; for GSI Female / GSI Male / HSI Female / HSI Male / Length Female / Length Male / Weight Female / Weight Male: at completion of exposure; for effect on fecundity (number of total eggs), in words: within the test concentrations
# In short: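 Run to OECD TG229: mature NIES-R medaka pairs (3♂/3♀ per vessel, 4 vessels per treatment plus dilution water control) were dosed by continuous flow-through for 21 days. Test concentrations were spaced 2- to 5-fold. Daily spawned eggs were counted under the microscope for fertilized versus unfertilized.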
smiles,measurement,setting,value
"Cc1cc(O)ccc1Cl [CMP, 4‐Chloro‐3‐methylphenol]",LOEC on VTG induction in male (in molarity),"hepatic VTG, 21-day exposure",7.4 µM
same,LOEC (in molarity) for male VTG: times higher than that of E2,in vivo,"110,000 times"
same,Fertility rate (%),measured conc. 108 μg/L,94%
same,Mortality (%) Female,measured conc. 108 μg/L,0%
same,Mortality (%) Male,measured conc. 108 μg/L,0%
same,Number of fertilized eggs,measured conc. 108 μg/L,24
same,Number of total eggs,measured conc. 108 μg/L,26 ± 3.2 /female/day
same,SSC Female,measured conc. 108 μg/L,0 ± 0
same,VTG (ng/mg of liver) Female,measured conc. 108 μg/L,"2,610 ± 265 ng/mg of liver"
same,VTG (ng/mg of liver) Male,measured conc. 108 μg/L,2.9 ± 4.4 ng/mg of liver
same,GSI Female,measured conc. 108 μg/L,9.9%
same,GSI Male,measured conc. 108 μg/L,0.80%
same,HSI Female,measured conc. 108 μg/L,3.9%
same,HSI Male,measured conc. 108 μg/L,1.9%
same,Length Female,measured conc. 108 μg/L,36.5 mm
same,Length Male,measured conc. 108 μg/L,36.0 mm
same,Weight Female,measured conc. 108 μg/L,565 mg
same,Weight Male,measured conc. 108 μg/L,498 mg
same,Fertility rate (%),measured conc. 350 μg/L,94%
same,Mortality (%) Female,measured conc. 350 μg/L,0%
same,Mortality (%) Male,measured conc. 350 μg/L,0%
same,Number of fertilized eggs,measured conc. 350 μg/L,24
same,Number of total eggs,measured conc. 350 μg/L,25 ± 3.9 /female/day
same,SSC Female,measured conc. 350 μg/L,0 ± 0
same,VTG (ng/mg of liver) Female,measured conc. 350 μg/L,"2,650 ± 214 ng/mg of liver"
same,VTG (ng/mg of liver) Male,measured conc. 350 μg/L,9.9 ± 18.3 ng/mg of liver
same,GSI Female,measured conc. 350 μg/L,9.8%
same,GSI Male,measured conc. 350 μg/L,0.68%
same,HSI Female,measured conc. 350 μg/L,4.4%
same,HSI Male,measured conc. 350 μg/L,2.4%
same,Length Female,measured conc. 350 μg/L,35.4 mm
same,Length Male,measured conc. 350 μg/L,36.4 mm
same,Weight Female,measured conc. 350 μg/L,509 mg
same,Weight Male,measured conc. 350 μg/L,529 mg
same,Fertility rate (%),"measured conc. 1,060 μg/L",93%
same,Mortality (%) Female,"measured conc. 1,060 μg/L",8.3%
same,Mortality (%) Male,"measured conc. 1,060 μg/L",0%
same,Number of fertilized eggs,"measured conc. 1,060 μg/L",23
same,Number of total eggs,"measured conc. 1,060 μg/L",25 ± 2.3 /female/day
same,SSC Female,"measured conc. 1,060 μg/L",0 ± 0
same,VTG (ng/mg of liver) Female,"measured conc. 1,060 μg/L","3,020 ± 702 ng/mg of liver"
same,VTG (ng/mg of liver) Male,"measured conc. 1,060 μg/L",33.8 ± 37.0 ng/mg of liver
same,GSI Female,"measured conc. 1,060 μg/L",9.9%
same,GSI Male,"measured conc. 1,060 μg/L",0.74%
same,HSI Female,"measured conc. 1,060 μg/L",3.9%
same,HSI Male,"measured conc. 1,060 μg/L",2.0%
same,Length Female,"measured conc. 1,060 μg/L",35.2 mm
same,Length Male,"measured conc. 1,060 μg/L",36.3 mm
same,Weight Female,"measured conc. 1,060 μg/L",509 mg
same,Weight Male,"measured conc. 1,060 μg/L",505 mg
same,"effect on fecundity (number of total eggs), in words",21-day exposure,No effect
"C#C[C@]1(O)CC[C@H]2[C@@H]3CCc4cc(O)ccc4[C@H]3CC[C@@]21C [EE2, 17α‐Ethynylestradiol]",LOEC on VTG induction in male (in molarity),"hepatic VTG, 21-day exposure",6e-05 µM
same,LOEC for VTG induction in males,"hepatic VTG, 21-day exposure, measured conc.",17.8 ng/L
same,"effect on male GSI, in words","highest concentration, 21-day exposure",significant decreasing
same,LOEC on male VTG induction: times smaller than the LOEC for CMP,in vivo,"more than 8,000 times"
same,Fertility rate (%),measured conc. 17.8 ng/L,84%
same,Mortality (%) Female,measured conc. 17.8 ng/L,0%
same,Mortality (%) Male,measured conc. 17.8 ng/L,0%
same,Number of fertilized eggs,measured conc. 17.8 ng/L,15
same,Number of total eggs,measured conc. 17.8 ng/L,18 ± 2.3 /female/day
same,SSC Female,measured conc. 17.8 ng/L,0 ± 0
same,SSC Male,measured conc. 17.8 ng/L,90 ± 8.1
same,VTG (ng/mg of liver) Female,measured conc. 17.8 ng/L,"2,170 ± 223 ng/mg of liver"
same,VTG (ng/mg of liver) Male,measured conc. 17.8 ng/L,68.3 ± 80.4 ng/mg of liver
same,GSI Female,measured conc. 17.8 ng/L,10.0%
same,GSI Male,measured conc. 17.8 ng/L,0.75%
same,HSI Female,measured conc. 17.8 ng/L,4.2%
same,HSI Male,measured conc. 17.8 ng/L,2.3%
same,Length Female,measured conc. 17.8 ng/L,35.4 mm
same,Length Male,measured conc. 17.8 ng/L,35.9 mm
same,Weight Female,measured conc. 17.8 ng/L,516 mg
same,Weight Male,measured conc. 17.8 ng/L,531 mg
same,Fertility rate (%),measured conc. 84.9 ng/L,88%
same,Mortality (%) Female,measured conc. 84.9 ng/L,0%
same,Mortality (%) Male,measured conc. 84.9 ng/L,0%
same,Number of fertilized eggs,measured conc. 84.9 ng/L,15
same,Number of total eggs,measured conc. 84.9 ng/L,17 ± 4.9 /female/day
same,SSC Female,measured conc. 84.9 ng/L,0 ± 0
same,SSC Male,measured conc. 84.9 ng/L,88 ± 5.7
same,VTG (ng/mg of liver) Female,measured conc. 84.9 ng/L,"3,840 ± 1,370 ng/mg of liver"
same,VTG (ng/mg of liver) Male,measured conc. 84.9 ng/L,"10,900 ± 3,840 ng/mg of liver"
same,GSI Female,measured conc. 84.9 ng/L,9.5%
same,GSI Male,measured conc. 84.9 ng/L,0.60%
same,HSI Female,measured conc. 84.9 ng/L,3.7%
same,HSI Male,measured conc. 84.9 ng/L,2.7%
same,Length Female,measured conc. 84.9 ng/L,35.8 mm
same,Length Male,measured conc. 84.9 ng/L,36.3 mm
same,Weight Female,measured conc. 84.9 ng/L,498 mg
same,Weight Male,measured conc. 84.9 ng/L,548 mg
same,Fertility rate (%),measured conc. 424 ng/L,73%
same,Mortality (%) Female,measured conc. 424 ng/L,8%
same,Mortality (%) Male,measured conc. 424 ng/L,33%
same,Number of fertilized eggs,measured conc. 424 ng/L,8
same,Number of total eggs,measured conc. 424 ng/L,10 ± 2.8 /female/day
same,SSC Female,measured conc. 424 ng/L,0 ± 0
same,SSC Male,measured conc. 424 ng/L,86 ± 6.7
same,VTG (ng/mg of liver) Female,measured conc. 424 ng/L,"15,100 ± 4,290 ng/mg of liver"
same,VTG (ng/mg of liver) Male,measured conc. 424 ng/L,"23,900 ± 3,760 ng/mg of liver"
same,GSI Female,measured conc. 424 ng/L,10.4%
same,GSI Male,measured conc. 424 ng/L,0.33%
same,HSI Female,measured conc. 424 ng/L,3.8%
same,HSI Male,measured conc. 424 ng/L,3.4%
same,Length Female,measured conc. 424 ng/L,35.3 mm
same,Length Male,measured conc. 424 ng/L,35.1 mm
same,Weight Female,measured conc. 424 ng/L,507 mg
same,Weight Male,measured conc. 424 ng/L,531 mg
same,"effect on fecundity (number of total eggs), in words",21-day exposure,significant decrease
